This test has as its target T1, human GPR120 (Homo sapiens, UniProt Q5NUL3).
T1 construct: expressed in transfected cells; host or cells: CHOA12 cells
T1 sequence (Q5NUL3 1-361): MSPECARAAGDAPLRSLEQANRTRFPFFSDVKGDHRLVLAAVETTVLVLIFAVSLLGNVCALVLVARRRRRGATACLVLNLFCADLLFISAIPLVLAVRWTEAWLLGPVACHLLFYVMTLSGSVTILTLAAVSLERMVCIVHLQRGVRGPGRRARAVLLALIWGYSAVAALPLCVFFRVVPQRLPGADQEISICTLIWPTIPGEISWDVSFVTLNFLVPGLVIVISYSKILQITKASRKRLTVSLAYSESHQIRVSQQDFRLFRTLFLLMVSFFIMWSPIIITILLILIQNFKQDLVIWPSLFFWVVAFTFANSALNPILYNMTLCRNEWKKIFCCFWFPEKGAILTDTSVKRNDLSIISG
In words: GPR120 pERK AlphaScreen SureFire assay (human). Type of test: cell-based. The conditions noted are these: CHO cells stably transfected with short form of human GPR120. From the text:
GPR120 activity was monitored by measuring phosphorylation of ERK (pERK), since G protein receptors are known to activate the ERK signaling cascade either directly and/or through recruitment of arrestin that serves as a scaffold for downstream signaling events.
GPR120 pERK AlphaScreen SureFire Assay
The human and mouse GPR120-mediated intracellular phosphorylated ERK assays were established using CHOA12 cells stably transfected with the short form of human or mouse GPR120 receptor. Cells were cultured in growth medium consisting of F-12 media (Invitrogen Cat. #11765) with 5% Charcoal/Dextran FBS (Invitrogen Cat. #12676-029), 500 μg/mL GENETICIN® (Life Technologies Cat. #10131-027) and 250 μg/mL Zeocin (Invitrogen Cat. #R250-01). Cells were cryo preserved at a concentration of 2×10^7 cells/mL, in 90% Charcoal/Dextran FBS and 10% DMSO, and frozen in liquid nitrogen at a low passage number.
For the pERK assay, 2×10^7 cells/mL cryopreserved human and mouse cells were thawed rapidly in a 37° C. water bath and added to a T-225 flask containing 50 mL growth medium. The flasks were placed in a tissue culture incubator overnight (37° C., 5% CO2). The next day, cells were harvested with trypsin (Gibco Cat. #25300-054), resuspended in serum-containing growth medium and counted using a Cellometer and volume adjusted to a concentration of 0.6×10^6cells/mL. Cells were plated into 384-well clear bottom tissue culture plates (BD Cat. #353962) at 50 μL/well, for a density of 30,000 cells/well using a MULTIDROP® and incubated for 16-18 hours (overnight) at 37° C. with 5% CO2. The next day, cells were serum starved in 30 μL of F-12 media without any serum or antibiotics for 2 hours at 37° C.
Test compounds were 3-fold, 11-point serially diluted in DMSO in a REMP assay plate (Matrix Cat. #4307) by Tecan and 5 μL was transferred into an ECHO source plate (LABCYTE® Cat. #LC-0200). Cells were then stimulated with 50 nL of compound dilutions using ECHO liquid handler for 7 minutes at 37° C. Compounds ranged from final assay concentrations of 33.33 μM to 0.56 nM.
The media was then dumped and cells lysed with 20 μL of 1× Lysis buffer from the AlphaScreen SureFire Phospho-ERK 1/2 Kit (Perkin Elmer Cat. #6760617M). The lysis buffer was diluted 5-fold with water before use. The plate was agitated on a shaker for 10 minutes after which 2 μL was transferred into a 384-well white proxiplate (Perkin Elmer Cat. #6008289). The SureFire assay reagent mix was prepared by mixing 60 parts Reaction Buffer, 10 parts Activation Buffer, 1 part Donor Beads, 1 part Acceptor Beads (Perkin Elmer Cat. #TGRES10K). 3.5 μL/well of this reagent mix was manually added to the proxiplate with a multichannel pipettor. Plates were spun down at 1000 rpm for 2 minutes, followed by light-protected incubation at room temperature for 2 hours. The plates were read on the Alpha-technology compatible Envision multilabel plate reader using AlphaScreen protocol according to manufacturer's specifications. The agonist effect of compounds was expressed as 100×(average sample−average blank)/(average total−average blank) where sample is the luminescence activity in the presence of test compound, blank is equal to the luminescence activity in the presence of DMSO control and the total is signal induced by 50 μM linolenic acid as reference compound. Activation data for the test compound over a range of concentrations was plotted as percentage activation of the test compound (100%=maximum response). After correcting for background, EC50 values were determined The EC50 is defined as the concentration of test compound which produces 50% of the maximal response and was quantified using the 4 parameter logistic equation to fit the data.
The human and mouse GPR120-mediated intracellular phosphorylated ERK assays were also established using CHO-K1 cells stably transfected with the short form of human or mouse GPR120 receptor. […]
Compound `O=C(O)C1CC1CCC12CCC(c3cccc(Oc4ccccc4)c3)(CC1)OC2` (racemic) [Example 13, trans-2-(2-(1-(3-Phenoxyphenyl)-2-oxabicyclo[2.2.2]octan-4-yl)ethyl)cyclopropanecarboxylic acid] came in with a concentration giving a half-maximal response (EC50) of 350 nM. Compound `O=C(O)[C@@H]1C[C@@H]1CCC12CCC(c3cccc(Oc4ccccc4)c3)(CC1)OC2` (racemic) [Example 32, Cis-2-(2-(1-(3-phenoxyphenyl)-2-oxabicyclo[2.2.2]octan-4-yl)ethyl)cyclopropanecarboxylic acid] displayed a concentration for a half-maximal effect (EC50) of 580 nM.

`CCCC(C)Oc1cccc(C23CCC(CCOCC(=O)O)(CC2)CO3)c1` (racemic) [Example 53, 2-(2-(1-(3-(Pentan-2-yloxy)phenyl)-2-oxabicyclo[2.2.2]octan-4-yl)ethoxy)acetic acid] registered a concentration giving a half-maximal response (EC50) of 1030 nM. `OCC(O)CCCC12CCC(c3cccc(Oc4ccccc4)c3)(CC1)OC2` (racemic) [Example 58, 5-(1-(3-Phenoxyphenyl)-2-oxabicyclo[2.2.2]octan-4-yl)pentane-1,2-diol] displayed a concentration giving a half-maximal response (EC50) of 290 nM.

For `O=C(O)[C@@H]1C[C@H]1CCC12CCC(c3cccc(Oc4ccccc4)c3)(CC1)OC2` (single isomer, unassigned) [Example 15], the EC50 amounted to 480 nM. Turning to `O=C(O)C[C@H]1C[C@@H]1CC12CCC(c3cccc(Oc4ccccc4)c3)(CC1)OC2` (single isomer, unassigned) [Example 17], the EC50 was determined as 260 nM. To `O=C(O)C[C@@H]1C[C@H]1CC12CCC(c3cccc(Oc4ccccc4)c3)(CC1)OC2` (single isomer, unassigned) [Example 18] belongs 410 nM. In the case of `OCC(O)CCCC12CCC(c3cccc(Oc4ccccc4)c3)(CC1)OC2` (single isomer, unassigned) [Example 59, S-5-(1-(3-Phenoxyphenyl)-2-oxabicyclo[2.2.2]octan-4-yl)pentane-1,2-diol], the response was half-maximal at 360 nM (EC50). To `OC[C@H](O)CCCC12CCC(c3cccc(Oc4ccccc4)c3)(CC1)OC2` (single isomer, unassigned) [Example 60, R-5-(1-(3-phenoxyphenyl)-2-oxabicyclo[2.2.2]octan-4-yl)pentane-1,2-diol] belongs 570 nM; to `O=C(NCc1ncn[nH]1)[C@@H]1C[C@H]1CCC12CCC(c3cccc(Oc4ccccc4)c3)(CC1)OC2` (single isomer, unassigned) [Example 62, N-((1H-1,2,4-Triazol-5-yl)methyl)-2-(2-(1-(3-phenoxyphenyl)-2-oxabicyclo[2.2.2]octan-4-yl)ethyl) cyclopropanecarboxamide], 1220 nM. To `O=C(O)C1CC1CCC12CCC(c3cc(F)cc(Oc4ccccc4)c3)(CC1)OC2` (single isomer, unassigned) [Example 63, 2-(2-(1-(3-Fluoro-5-phenoxyphenyl)-2-oxabicyclo[2.2.2]octan-4-yl)ethyl)cyclopropanecarboxylic acid] belongs 370 nM; to `O=C(O)[C@@H]1C[C@H]1CCC12CCC(c3cc(F)cc(Oc4cccc(F)c4)c3)(CC1)OC2` (single isomer, unassigned) [Example 64, 2-(2-(1-(3-Fluoro-5-(3-fluorophenoxy)phenyl)-2-oxabicyclo[2.2.2]octan-4-yl)ethyl) cyclopropanecarboxylic acid], 260 nM.

With `O=C(O)[C@@H]1C[C@H]1CCC12CCC(c3cccc(Oc4cccc(F)c4)c3)(CC1)OC2` (single isomer, unassigned) [Example 65, 2-(2-(1-(3-(3-Fluorophenoxy)phenyl)-2-oxabicyclo[2.2.2]octan-4 yl)ethyl)cyclopropane carboxylic acid], the EC50 is 330 nM. To `CC(C)COc1cccc(C23CCC(CC[C@@H]4C[C@H]4C(=O)O)(CC2)CO3)c1` (single isomer, unassigned) [Example 66, 2-(2-(1-(3-Isobutoxyphenyl)-2-oxabicyclo[2.2.2]octan-4-yl)ethyl)cyclopropanecarboxylic acid] belongs 2080 nM. The result for `COc1cccc(Oc2cccc(C34CCC(CC[C@@H]5C[C@H]5C(=O)O)(CC3)CO4)c2)c1` (single isomer, unassigned) [Example 67, 2-(2-(1-(3-(3-Methoxyphenoxy)phenyl)-2-oxabicyclo[2.2.2]octan-4-yl)ethyl)cyclopropanecarboxylic acid] reads 750 nM. Consider `O=C(NCc1ncn[nH]1)[C@H]1C[C@@H]1CCC12CCC(c3cccc(Oc4ccccc4)c3)(CC1)OC2` (single isomer, unassigned) [Example 68, N-((1H-1,2,4-Triazol-5-yl)methyl)-2-(2-(1-(3-phenoxyphenyl)-2-oxabicyclo[2.2.2]octan-4-yl)ethyl)cyclopropanecarboxamide], for which a half-maximal effect (EC50) was put at 720 nM. To `CCNC(=O)[C@@H]1C[C@H]1CCC12CCC(c3cccc(Oc4ccccc4)c3)(CC1)OC2` (single isomer, unassigned) [Example 69, N-Ethyl-2-(2-(1-(3-phenoxyphenyl)-2-oxabicyclo[2.2.2]octan-4-yl)ethyl) cyclopropanecarboxamide] belongs 4230 nM; to `O=C(O)[C@@H]1C[C@H]1CCC12CCC(c3cccc(Oc4cccc(O)c4)c3)(CC1)OC2` (single isomer, unassigned) [Example 70, 2-(2-(1-(3-(3-Hydroxyphenoxy)phenyl)-2-oxabicyclo[2.2.2]octan-4-yl)ethyl) cyclopropanecarboxylic acid], 970 nM. `O=C(O)[C@@H]1C[C@H]1COCC12CCC(c3cccc(Oc4ccccc4)c3)(CC1)OC2` (single isomer, unassigned) [Example 98] yielded a concentration giving a half-maximal response (EC50) of 1020 nM. Take `O=C(O)[C@H]1C[C@@H]1COCC12CCC(c3cccc(Oc4ccccc4)c3)(CC1)OC2` (single isomer, unassigned) [Example 99]: it took 340 nM to reach a half-maximal effect (EC50). `O=C(O)CCC12CCC(c3cccc(Oc4ccccc4)c3)(CC1)OC2` [Example 1, 3-(1-(3-Phenoxyphenyl)-2-oxabicyclo[2.2.2]octan-4-yl)propanoic acid]: the response was half-maximal at 2310 nM (EC50). In the case of `O=C(O)CCCCC12CCC(c3cccc(Oc4ccccc4)c3)(CC1)OC2` [Example 2], the concentration for a half-maximal effect (EC50) was found to be 60 nM. The result for `COc1cccc(C23CCC(CCCCC(=O)O)(CC2)CO3)c1` [Example 3, 5-(1-(3-Methoxyphenyl)-2-oxabicyclo[2.2.2]octan-4-yl)pentanoic acid] reads 200 nM; that for `Cc1nc(-c2ccccc2)c(C23CCC(CCCCC(=O)O)(CC2)CO3)s1` [Example 4, 5-(1-(2-Methyl-4-phenylthiazol-5-yl)-2-oxabicyclo[2.2.2]octan-4-yl)pentanoic acid], 1600 nM.

As to `O=C(O)CCOCC12CCC(c3cccc(Oc4ccccc4)c3)(CC1)OC2` [Example 5, 3-((1-(3-Phenoxyphenyl)-2-oxabicyclo[2.2.2]octan-4-yl)methoxy)propanoic acid], the EC50 worked out at 80 nM.

Turning to `CC(C)Oc1cccc(C23CCC(CCOCC(=O)O)(CC2)CO3)c1` [Example 7, 2-(2-(1-(3-Isopropoxyphenyl)-2-oxabicyclo[2.2.2]octan-4-yl)ethoxy)acetic acid], the EC50 turned out to be 7540 nM.

For the origin of these results see patent publication US8962660B2 (Bristol-Myers Squibb Company, priority 2013, dated 2015).
